Usually IC50 stands for the concentration needed to halve the response being measured.

These results are taken from patent US20210198277A1, “AMINE-SUBSTITUTED ARYL OR HETEROARYL COMPOUNDS” (Epizyme, Inc., priority 2016, published 2021).

The experiment has as its target T1, EHMT2 (Homo sapiens, UniProt Q96KQ7).
T1 construct: host or cells: MDA-MB-231
T1 sequence (Q96KQ7 1-1210): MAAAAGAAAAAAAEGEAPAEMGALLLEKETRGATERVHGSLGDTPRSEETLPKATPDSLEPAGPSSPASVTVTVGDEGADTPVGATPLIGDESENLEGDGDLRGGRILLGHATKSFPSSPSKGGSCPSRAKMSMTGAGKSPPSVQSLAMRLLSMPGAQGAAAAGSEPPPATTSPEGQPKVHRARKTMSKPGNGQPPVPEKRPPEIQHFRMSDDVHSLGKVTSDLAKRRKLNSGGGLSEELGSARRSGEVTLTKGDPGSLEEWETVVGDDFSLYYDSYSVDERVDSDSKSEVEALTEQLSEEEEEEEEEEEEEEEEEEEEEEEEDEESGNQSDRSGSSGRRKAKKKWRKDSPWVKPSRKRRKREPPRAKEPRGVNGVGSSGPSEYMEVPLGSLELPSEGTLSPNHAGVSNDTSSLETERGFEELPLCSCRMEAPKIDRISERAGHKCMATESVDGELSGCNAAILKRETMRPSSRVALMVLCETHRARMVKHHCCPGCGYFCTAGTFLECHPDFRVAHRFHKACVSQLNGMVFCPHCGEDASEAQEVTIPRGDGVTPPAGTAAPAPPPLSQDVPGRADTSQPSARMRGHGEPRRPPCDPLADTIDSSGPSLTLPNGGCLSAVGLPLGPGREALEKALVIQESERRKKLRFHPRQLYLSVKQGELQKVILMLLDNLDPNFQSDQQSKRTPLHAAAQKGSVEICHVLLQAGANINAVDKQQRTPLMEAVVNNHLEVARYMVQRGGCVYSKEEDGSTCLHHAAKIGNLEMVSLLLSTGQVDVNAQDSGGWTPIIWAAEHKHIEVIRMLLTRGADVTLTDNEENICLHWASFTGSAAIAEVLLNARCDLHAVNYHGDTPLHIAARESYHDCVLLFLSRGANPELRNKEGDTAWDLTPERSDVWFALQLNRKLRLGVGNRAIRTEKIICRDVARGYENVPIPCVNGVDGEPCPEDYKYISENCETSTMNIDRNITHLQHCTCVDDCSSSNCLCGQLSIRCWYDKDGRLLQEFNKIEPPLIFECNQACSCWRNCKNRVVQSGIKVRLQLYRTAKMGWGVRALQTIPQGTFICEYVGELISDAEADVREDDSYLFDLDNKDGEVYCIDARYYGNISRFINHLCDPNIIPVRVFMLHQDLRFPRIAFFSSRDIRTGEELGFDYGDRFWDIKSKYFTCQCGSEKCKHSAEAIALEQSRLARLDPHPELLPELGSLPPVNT
In words: MDA-MB-231 H3K9me2 in-cell Western assay (EHMT2 ICW). The class given is cell-based. The conditions noted are these: Table II; MDA-MB-231 H3K9me2 in-cell Western; read-out: EHMT2 ICW (IC50 μM). Put shortly:
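Cells seeded at 3,000/well onto pre-dispensed compound; 30 min RT, then 48 h 37 °C/5% CO2. PFA fix, block, α-H3K9me2 1:800 o/n 4 °C, 800CW secondary + DRAQ5. Odyssey scan 700/800 nm; ratio → % inhibition → 4-parameter IC50.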

Consider `COc1ccc(Nc2nccc(NCC3CCNCC3)n2)cc1OCCCN1CCOCC1` [Compound 16, N^2-(4-methoxy-3-(3-morpholinopropoxy)phenyl)-N^4-(piperidin-4-ylmethyl)pyrimidine-2,4-diamine], for which the IC50 is more than 10 µM.

In the case of `COc1ccc(Nc2nccc(NCC3CCNCC3)n2)cc1CCNCC1CCCC1` [Compound 17, N^2-(3-(2-((cyclopentylmethyl)amino)ethyl)-4-methoxyphenyl)-N^4-(piperidin-4-ylmethyl)pyrimidine-2,4-diamine], the IC50 was more than 10 µM.

Regarding `COc1ccc(Nc2nccc(NCC3CCN(C(C)=O)CC3)n2)cc1OCC1CCN(C)C1` (stereo not drawn) [Compound 18, 1-(4-(((2-((4-methoxy-3-((1-methylpyrrolidin-3-yl)methoxy)phenyl)amino)pyrimidin-4-yl)amino)methyl)piperidin-1-yl)ethan-1-one], the IC50 lay within 1 to 10 µM.

Turning to `COc1ccc(Nc2nc(C)cc(NCC3CCN(C(C)=O)CC3)n2)cc1OCCCN1CCCC1` [Compound 19, 1-(4-(((2-((4-methoxy-3-(3-(pyrrolidin-1-yl)propoxy)phenyl)amino)-6-methylpyrimidin-4-yl)amino)methyl)piperidin-1-yl)ethan-1-one], the IC50 lay in the range of 0.1 to 1 µM.

Take `COc1ccc(Nc2nccc(NC(C)C)n2)cc1OCCCN1CCCC1` [Compound 20]: the IC50 lay in the range of 0.1 to 1 µM.

For `COc1ccc(Nc2nccc(NCc3ccccc3)n2)cc1OCCCN1CCCC1` [Compound 21], the IC50 is 0.1 to 1 µM.

Take `COCCCNc1ccnc(Nc2ccc(OC)c(OCCCN3CCCC3)c2)n1` [Compound 22]: the IC50 was 0.1 to 1 µM.

For the compound `COc1ccc(Nc2nccc(NCc3ccccn3)n2)cc1OCCCN1CCCC1` [Compound 23], the IC50 fell in the range of 0.1 to 1 µM.

As for `COc1ccc(Nc2nccc(NCc3ccncc3)n2)cc1OCCCN1CCCC1` [Compound 24], the IC50 lay within 0.1 to 1 µM.

For `COc1ccc(Nc2nccc(NCc3cccnc3)n2)cc1OCCCN1CCCC1` [Compound 25], the half-inhibitory concentration (IC50) was 0.1 to 1 µM.

Take `COc1cccc(CNc2ccnc(Nc3ccc(OC)c(OCCCN4CCCC4)c3)n2)c1` [Compound 26]: the IC50 lay within 0.1 to 1 µM.

Take `COCCNc1ccnc(Nc2ccc(OC)c(OCCCN3CCCC3)c2)n1` [Compound 27]: the IC50 is 0.1 to 1 µM.

On to `COc1ccc(CNc2ccnc(Nc3ccc(OC)c(OCCCN4CCCC4)c3)n2)cc1` [Compound 28], for which the IC50 lay within 0.1 to 1 µM.

As to `COc1ccc(Nc2nccc(NCC3CCN(C(C)C)CC3)n2)cc1OCCCN1CCCC1` [Compound 29], the IC50 fell in the range of 0.1 to 1 µM.

As for `COc1ccc(Nc2nccc(NCc3cnn(C)c3)n2)cc1OCCCN1CCCC1` [Compound 30], the IC50 fell in the range of 0.1 to 1 µM.

Consider `COc1ccc(Nc2nccc(NCc3nc4ccccc4[nH]3)n2)cc1OCCCN1CCCC1` [Compound 31], for which the IC50 lay within 0.1 to 1 µM.

With `COc1ccc(Nc2nccc(NCC3CCN(C)CC3)n2)cc1OCCCN1CCCC1` [Compound 32], the IC50 was in the range of 0.1 to 1 µM.

Take `COc1ccc(Nc2nccc(NCC3CCN(c4ccccc4)CC3)n2)cc1OCCCN1CCCC1` [Compound 33]: the IC50 was 0.1 to 1 µM.

As to `COc1ccc(Nc2nccc(NCC3CCCC3)n2)cc1OCCCN1CCCC1` [Compound 34], the IC50 was 0.1 to 1 µM.

On to `COc1ccc(Nc2cccc(NC3CCC3)n2)cc1OCCCN1CCCC1` [Compound 35], for which the IC50 was 0.1 to 1 µM.

As to `COc1ccccc1CNc1ccnc(Nc2ccc(OC)c(OCCCN3CCCC3)c2)n1` [Compound 36], the IC50 lay within 0.1 to 1 µM.

Take `COc1ccc(Nc2nccc(NCCc3cccnc3)n2)cc1OCCCN1CCCC1` [Compound 37]: the IC50 lay within 0.1 to 1 µM.

`COc1ccc(Nc2nccc(NCCNC(C)=O)n2)cc1OCCCN1CCCC1` [Compound 38]: the IC50 is 0.1 to 1 µM.

For `COc1ccc(Nc2nccc(NCCc3ccncc3)n2)cc1OCCCN1CCCC1` [Compound 39], the IC50 lay in the range of 0.1 to 1 µM.

`COc1ccc(Nc2nccc(NCCOc3ccccc3)n2)cc1OCCCN1CCCC1` [Compound 40]: the IC50 lay within 1 to 10 µM.

Regarding `CNC(=O)CNc1ccnc(Nc2ccc(OC)c(OCCCN3CCCC3)c2)n1` [Compound 41], the IC50 was 1 to 10 µM.

For `COc1ccc(Nc2nccc(NCC(C)(C)O)n2)cc1OCCCN1CCCC1` [Compound 42], the IC50 lay in the range of 1 to 10 µM.

Regarding `COc1ccc(Nc2nccc(NCCS(=O)(=O)N(C)C)n2)cc1OCCCN1CCCC1` [Compound 43], the IC50 lay in the range of 1 to 10 µM.

Consider `COc1ccc(Nc2nccc(NCCCN(C)C(C)=O)n2)cc1OCCCN1CCCC1` [Compound 44], for which the IC50 is 1 to 10 µM.

Take `COc1ccc(Nc2nccc(NCC3(O)CCCCC3)n2)cc1OCCCN1CCCC1` [Compound 45]: the IC50 fell in the range of 1 to 10 µM.

Turning to `COc1ccc(Nc2nccc(NCc3cc[nH]n3)n2)cc1OCCCN1CCCC1` [Compound 46], the IC50 fell in the range of 1 to 10 µM.

`COc1ccc(Nc2nccc(NCC3CCN(C(C)=O)CC3)n2)cc1OCCCN1CCCC1` [Compound 47, 1-(4-(((2-((4-methoxy-3-(3-(pyrrolidin-1-yl)propoxy)phenyl)amino)pyrimidin-4-yl)amino)methyl)piperidin-1-yl)ethan-1-one]: the half-maximal inhibitory concentration (IC50) was 1 to 10 µM.

As for `COc1ccc(Nc2nccc(NCC3CCN(C(C)=O)CC3)n2)cc1COCCN1CCCC1` [Compound 48], the IC50 is 1 to 10 µM.

`COc1ccc(Nc2nccc(NCC3(O)CCOCC3)n2)cc1OCCCN1CCCC1` [Compound 49]: the half-maximal inhibitory concentration (IC50) fell in the range of 1 to 10 µM.

As for `COc1ccc(Nc2nccc(NC3CCCCC3)n2)cc1OCCCN1CCCC1` [Compound 50], the IC50 was in the range of 1 to 10 µM.

As for `CNc1cc(C)nc(Nc2ccc(OC)c(OCCCN3CCCC3)c2)n1` [Compound 205, N^2-(4-methoxy-3-(3-(pyrrolidin-1-yl)propoxy)phenyl)-N^4,6-dimethylpyrimidine-2,4-diamine], the IC50 was less than 0.1 µM.

For the compound `CNc1cc(Nc2ccc(OC)c(OCCCN3CCCC3)c2)ccn1` [Compound 206], the IC50 was more than 10 µM.

For `CNc1ccnc(Nc2cccc(OCCCN3CCCC3)c2)n1` [Compound 207, N^4-methyl-N^2-(3-(3-(pyrrolidin-1-yl)propoxy)phenyl)pyrimidine-2,4-diamine], the IC50 lay in the range of 1 to 10 µM.

For `CNc1nc(C)cc(Nc2ccc(OC)c(OCCCN3CCCC3)c2)n1` [Compound 208], the IC50 is 1 to 10 µM.

On to `CNc1ccnc(Nc2ccc(OC)c(OCCCN3CCCC3)c2)c1` [Compound 209, N^2-(4-methoxy-3-(3-(pyrrolidin-1-yl)propoxy)phenyl)-N^4-methylpyridine-2,4-diamine], for which the IC50 fell in the range of 1 to 10 µM.

For `CNc1ccnc(Nc2ccc(OC)c(OCCCN3CCOCC3)c2)n1` [Compound 210], the IC50 fell in the range of 1 to 10 µM.

For the compound `COc1ccc(Nc2nccc(-n3nc(C)cc3C)n2)cc1OCCCN1CCCC1` [Compound 214], the IC50 was more than 10 µM.

Consider `CNCc1cnc(Nc2ccc(OC)c(OCCCN3CCCC3)c2)nc1` [Compound 215], for which the IC50 was more than 10 µM.

As for `COc1ccc(Nc2ccnc(NCC3CCN(C(C)=O)CC3)n2)cc1OCCCN1CCCC1` [Compound 216], the half-maximal inhibitory concentration (IC50) was more than 10 µM.

Take `COc1ccc(Nc2ccc3cnn(C)c3c2)cc1OCCCN1CCCC1` [Compound 217]: the IC50 is more than 10 µM.

`COc1ccc(Nc2ccc3ncn(C)c3n2)cc1OCCCN1CCCC1` [Compound 218]: the IC50 was more than 10 µM.

On to `COc1ccc(Nc2ncc3ncn(C)c3n2)cc1OCCCN1CCCC1` [Compound 219], for which the IC50 is more than 10 µM.

For `COc1ccc(Nc2cccc3ncnn23)cc1OCCCN1CCCC1` [Compound 220], the IC50 was more than 10 µM.
